# Data taken from patent US20190307843A1, “SINGLE DOSE METHODS FOR PREVENTING AND TREATING FUNGAL INFECTIONS” (Cidara Therapeutics, Inc., priority 2016, published 2019).
# Several values for one entry are separate records, joined by “and”; a condition that tells them apart may be missing. Equal entries are not always repeated. Starred links: 1 amine or outer side, 2 acyl side, 3 side chain; linkers in the order of their positions; H or OH if unused. Positions of bridges follow the written chain, without caps; N, C: chain ends. Non-standard residues stand in square brackets, D forms with d. Residues, ends and D or L forms follow the SMILES beside them. *: point of attachment. hTyr(3S-OH,4S-OH,3'-OSO3H) = N[C@H](C(=O)O)[C@H](O)[C@@H](O)c1ccc(O)c(OS(=O)(=O)O)c1; Orn(4R-OH,5R-OH) = O=C([C@H](C[C@@H](O)[C@@H](O)N[*:3])N[*:1])[*:2]; Pro(3S-OH,4S-Me) = C[C@H]1CN[C@H](C(=O)O)[C@H]1O; X1 = CCCCCOc1ccc(-c2cc(-c3ccc(C(=O)*)cc3)no2)cc1; Gln(3R-OH) = NC(=O)C[C@@H](O)[C@H](N)C(=O)O; Hyp = O=C(O)[C@@H]1C[C@@H](O)CN1
# Columns and labels:
# [1] = type: in vivo, rat; conditions: rat, in vivo
# Procedure: The rats were monitored at a frequency appropriate for their clinical condition. Rat weights were recorded at least once daily to ensure animals remained within ethical limits.
# A. fumigatus AF293 [2] = experiment: Pulmonary aspergillosis, prophylaxis, neutropenic ICR mice (Examples 17, 18), survival; type: in vivo, Aspergillus fumigatus; conditions: micafungin 5 mg/kg
# Procedure: Intranasal infection with A. fumigatus AF293 (10^5 CFU/mouse) on Day 0. Prophylaxis CD101 as a single dose (IP; 5, 10, 20 mg/kg) or posaconazole (PO; 2 and 10 mg/kg) 1 day prior to infection. Survival monitored for 10 days.
# Intranasal challenge with A. fumigatus AF293 (10^5 CFU/mouse) was initiated on Day 0 and prophylaxis with CD101 as a single dose (IP; 5, 10, 20 mg/kg) or posaconazole (PO; 2 and 10 mg/kg) was started 1 day prior to infection. Survival was monitored for 10 days.
# Candida albicans SC5314 = conditions: 24 hr
# A. fumigatus AF293 [3] = experiment: Murine model of pulmonary aspergillosis (Example 19), terminal lung burden; type: in vivo, Aspergillus fumigatus; conditions: Micafungin 5 mg/kg IP Day −1
# Procedure: (§1) A secondary endpoint for the study was terminal lung tissue burden. Immediately following confirmation of death, carcasses were frozen at −20° C. prior to tissue dissection and processing. The frozen carcasses were thawed at room temperature, the lungs removed and placed into pre-weighed bead-beating tubes containing 2 mL of PBS and subjected to mechanical disruption. Organ homogenates were diluted further in PBS and quantitatively cultured for A. fumigatus onto SABC and incubated at 30° C. for 24-48 hours.
# 2. Lung tissue burden data were analysed using the non-parametric Kruskal-Wallis test and if this was statistically significant all pairwise comparisons were analyzed (Conover-Inman).
# [4] = system: A. fumigatus strain AF293; experiment: Murine model of pulmonary aspergillosis (Example 13), terminal lung burden; type: in vivo, Aspergillus fumigatus
# Procedure: as §1, with “temperature and” for “temperature,”, “hours. In addition, a 300 μL aliquot of the undiluted lung tissue homogenate was stored at −80° C. for possible optional assessment of burden by qPCR.” for “hours.”
# A. fumigatus AF293 [5] = experiment: Murine model of pulmonary aspergillosis (Example 19), survival
# [6] = Micafungin 5 mg/kg IP once, Day 1 pre-infection
SMILES,tolerability [1],survival (A. fumigatus AF293 [2]),CFU clearance (Candida albicans SC5314; micafungin IP 10 mg/kg),"CFU reduction (Candida albicans SC5314; micafungin IP 1, 3, 10 mg/kg)",Group Geometric mean (lung burden) (A. fumigatus AF293 [3]),Log10 Group Geometric mean (lung burden) (A. fumigatus AF293 [3]),Log10 reduction from vehicle control (A. fumigatus AF293 [3]),Group Geometric mean (lung burden) ([4]; Micafungin 2 mg/kg IP Day 0),Log10 Group Geometric mean (lung burden) ([4]; Micafungin 2 mg/kg IP Day 0),Log10 reduction from vehicle control ([4]; Micafungin 2 mg/kg IP Day 0),Group Geometric mean (lung burden) ([4]; Micafungin 2 mg/kg IP Day −1),Log10 Group Geometric mean (lung burden) ([4]; Micafungin 2 mg/kg IP Day −1),Log10 reduction from vehicle control ([4]; Micafungin 2 mg/kg IP Day −1),"survival time post infection, range (A. fumigatus AF293 [5]; Micafungin 5 mg/kg IP once)",Mean Survival (A. fumigatus AF293 [5]; [6]),Median Survival (A. fumigatus AF293 [5]; [6]),survival (A. fumigatus AF293 [5]; micafungin 5 mg/kg once one day pre-infection)
OC(Cn1cncn1)(Cn1cncn1)c1ccc(F)cc1F [fluconazole],well tolerated with no adverse events observed,–,–,–,–,–,–,–,–,–,–,–,–,–,–,–,–
"CCCCCOc1ccc(-c2cc(-c3ccc(C(=O)N[C@H]4C[C@@H](O)[C@@H](O)NC(=O)[C@@H]5[C@@H](O)[C@@H](C)CN5C(=O)[C@H]([C@H](O)CC(N)=O)NC(=O)[C@H]([C@H](O)[C@@H](O)c5ccc(O)c(OS(=O)(=O)O)c5)NC(=O)[C@@H]5C[C@@H](O)CN5C(=O)[C@H]([C@@H](C)O)NC4=O)cc3)no2)cc1 [Micafungin, micafungin] (X1-[Orn(4R-OH,5R-OH)]T[Hyp][hTyr(3S-OH,4S-OH,3'-OSO3H)][Gln(3R-OH)][Pro(3S-OH,4S-Me)]; lactam 1-C)",–,no survivors,complete clearance was only observed with the 10 mg/kg dose,good dose response in CFU reduction,6.61 × 10^3 CFU/g,3.82 CFU/g,0.35 CFU/g,1.08 × 10^4 CFU/g,4.03 CFU/g,−0.26 CFU/g,4.34 x 10^4 CFU/g,4.64 CFU/g,−0.86 CFU/g,71 to 162 h,92 h and 92.0 h,80 h and 80.0 h,did not show any improvement in survival
